The record followed here is patent US9265253B2, “Use of macrocyclic picolinamides as fungicides” (DOW AGROSCIENCES LLC, priority 2013, dated 2016).

Like-named read-outs stand apart in the source and are kept apart here.

Test [1] has as its system Mycosphaerella graminicola; Anamorph: Septoria tritici. Briefly: Leaf Blotch of Wheat (SEPTTR) disease control. To be noted: for pest or weed control at 100 ppm / pest or weed control at 121.5 g/ha: Zymoseptoria tritici. It counts as in vivo. The protocol:
(§1) Technical grades of materials were dissolved in acetone, which were then mixed with nine volumes of water containing 110 ppm Triton X-100. The fungicide solutions were applied onto wheat seedlings using an automated booth sprayer to run-off. All sprayed plants were allowed to air dry prior to further handling. All fungicides were evaluated using the aforementioned method for their activity vs. all target diseases. Wheat leaf blotch and brown rust activity were also evaluated using track spray applications, in which case the fungicides were formulated as EC formulations, containing 0.1% Trycol 5941 in the spray solutions. Wheat plants (variety Yuma) were grown from seed in a greenhouse in 50% mineral soil/50% soil-less Metro mix until the first leaf was fully emerged, with 7-10 seedlings per pot. These plants were inoculated with an aqueous spore suspension of Septoria tritici either prior to or after fungicide treatments. After inoculation the plants were kept in 100% relative humidity (one day in a dark dew chamber followed by two to three days in a lighted dew chamber at 20° C.) to permit spores to germinate and infect the leaf. The plants were then transferred to a greenhouse set at 20° C. for disease to develop. When disease symptoms were fully expressed on the 1st leaves of untreated plants, infection levels were assessed on a scale of 0 to 100 percent disease severity. Percent disease control was calculated using the ratio of disease severity on treated plants relative to untreated plants.

For test [2], the system named is Puccinia triticina; Synonym: Puccinia recondite f. Sp. Tritici. The experiment in a line: Wheat Brown Rust (PUCCRT) disease control. To be noted: Puccinia triticina, topical. It counts as in vivo. The protocol:
as §1, with “plants. Wheat plants (variety Yuma) were grown from seed in a greenhouse in 50% mineral soil/50% soil-less Metro mix until the first leaf was fully emerged, with 7-10 seedlings per pot. These plants were inoculated with an aqueous spore suspension of Puccinia triticina either prior to or after fungicide treatments. After inoculation the plants were kept in a dark dew room at 22° C. with 100% relative humidity overnight to permit spores to germinate and infect the leaf. The plants were then transferred to a greenhouse set at 24° C. for disease to develop. Fungicide formulation, application and disease assessment followed the procedures as described in the Example A.” for “plants.”

Setting [3] is: 24 h, 1 Day Protectant, rate 100 ppm, read-out: SEPTTR 1 DP disease control.
The mark [4] stands for this setting: 24 h, 1 Day Protectant, rate 121.5 g/H, read-out: SEPTTR 1 DP disease control.
[5] abbreviates: 72 h, 3 Day Curative, rate 121.5 g/H, read-out: SEPTTR 3 DC disease control.
The mark [6] stands for this setting: 24 h, 1 Day Protectant, rate 100 ppm, read-out: PUCCRT 1 DP disease control.
[7] abbreviates: 24 h, 1 Day Protectant, rate 121.5 g/H, read-out: PUCCRT 1 DP disease control.
[8] abbreviates: 72 h, 3 Day Curative, rate 100 ppm, read-out: PUCCRT 3 DC disease control.
[9] abbreviates: 72 h, 3 Day Curative, rate 121.5 g/H, read-out: PUCCRT 3 DC disease control.
[10] abbreviates: 72 h, 3 Day Curative, rate 100 ppm, read-out: SEPTTR 3 DC disease control.
The mark [11] stands for this setting: 24 h, Wheat Brown Rust, 1 Day Protectant, rate 100 ppm (high volume application), read-out: Disease control PUCCRT 1 DP.
The mark [12] stands for this setting: 24 h, Wheat Brown Rust, 1 Day Protectant, rate 121.5 g/H (low volume application), read-out: Disease control PUCCRT 1 DP.
Setting [13] is: 72 h, Wheat Brown Rust, 3 Day Curative, rate 121.5 g/H (low volume application), read-out: Disease control PUCCRT 3 DC.

With `COc1ccnc(C(=O)N[C@H]2CCC[C@H](Cc3ccc(C)cc3)[C@@H](OCCCC(F)(F)F)[C@H](C)OC2=O)c1O` [Compound F10], the “SEPTTR 3 DC disease control” value in test [1] (3 Day Curative, rate 100 ppm) was “A (80-100)”. The pest or weed control at 100 ppm in test [1] (setting [3]), in test [2] (setting [6]) and in test [2] (setting [8]) was 80 to 100% each time. For the same molecule, the pest or weed control at 121.5 g/ha in test [1] (setting [4]) is 80 to 100%; in test [1] (setting [5]), 80 to 100%; in test [2] (setting [7]) it was 80 to 100%; in test [2] (setting [9]), 0 to 80%.
With `COc1ccnc(C(=O)N[C@H]2CCC[C@H](CC3CCCC3)[C@@H](OCC3CC3)[C@H](C)OC2=O)c1OCOC(=O)C(C)C` [Compound F154, ((2-(((3S,7R,8R,9S)-7-(cyclopentylmethyl)-8-(cyclopropylmethoxy)-9-methyl-2-oxooxonan-3-yl)carbamoyl)-4-methoxypyridin-3-yl)oxy)methyl isobutyrate], the pest or weed control at 100 ppm in test [1] (setting [3]), in test [1] (setting [10]), in test [2] (setting [6]) and in test [2] (setting [8]) was 80 to 100% each time. Further, the pest or weed control at 121.5 g/ha in test [1] (setting [4]), in test [1] (setting [5]), in test [2] (setting [7]) and in test [2] (setting [9]) was 80 to 100% each time.
Regarding `COc1ccnc(C(=O)N[C@H]2CCC[C@H](Cc3ccc(F)cc3)[C@@H](OCC(F)F)[C@H](C)OC2=O)c1O` [Compound F15], the pest or weed control at 100 ppm in test [1] (setting [3]), in test [1] (setting [10]), in test [2] (setting [6]) and in test [2] (setting [8]) was 80 to 100% each time.
As to `CCOCC(=O)OCOc1c(OC)ccnc1C(=O)N[C@H]1CCC[C@H](Cc2ccc(C)cc2)[C@@H](OCCCC(F)(F)F)[C@H](C)OC1=O` [Compound F190, ((4-methoxy-2-(((3S,7R,8R,9S)-9-methyl-7-(4-methylbenzyl)-2-oxo-8-(4,4,4-trifluorobutoxyl)oxonan-3-yl)carbamoyl)pyridin-3-yl)oxy)methyl 2-ethoxyacetate], the pest or weed control at 100 ppm in test [1] (24 h, Wheat Leaf Blotch, 1 Day Protectant, rate 100 ppm (high volume application), read-out: Disease control SEPTTR 1 DP) lay within 80 to 100%; in test [1] (72 h, Wheat Leaf Blotch, 3 Day Curative, rate 100 ppm (high volume application), read-out: Disease control SEPTTR 3 DC), 80 to 100%; in test [2] (setting [11]) it was 80 to 100%. Moreover, the pest or weed control at 121.5 g/ha in test [1] (24 h, Wheat Leaf Blotch, 1 Day Protectant, rate 121.5 g/H (low volume application), read-out: Disease control SEPTTR 1 DP) was 80 to 100%; in test [1] (72 h, Wheat Leaf Blotch, 3 Day Curative, rate 121.5 g/H (low volume application), read-out: Disease control SEPTTR 3 DC) it was 80 to 100%; in test [2] (setting [12]), 80 to 100%; in test [2] (setting [13]), 0 to 80%.
Consider `COc1ccnc(C(=O)N[C@H]2CCC[C@H](CC3CCCC3)[C@@H](OCC3CC3)[C@H](C)OC2=O)c1OC(C)=O` [Compound F73], for which the pest or weed control at 100 ppm in test [1] (setting [3]), in test [1] (setting [10]), in test [2] (setting [6]) and in test [2] (setting [8]) was 80 to 100% in each case. Also, the pest or weed control at 121.5 g/ha in test [1] (setting [4]), in test [1] (setting [5]), in test [2] (setting [7]) and in test [2] (setting [9]) was 80 to 100% each time.
On to `COc1ccnc(C(=O)N[C@H]2CCC[C@H](CCOCC3CC3)[C@@H](OCC3CC3)[C@H](C)OC2=O)c1O` [Compound F54], for which the pest or weed control at 100 ppm lay within 0 to 80% in test [1] (setting [3]), 80 to 100% in test [1] (setting [10]), 80 to 100% in test [2] (setting [6]) and 80 to 100% in test [2] (setting [8]).
Regarding `CCOCC(=O)OCOc1c(OC)ccnc1C(=O)N[C@H]1CCC[C@H](Cc2ccc(OC)cc2)[C@@H](OCC2CC2)[C@H](C)OC1=O` [Compound F177], the pest or weed control at 100 ppm in test [1] (setting [3]), in test [1] (setting [10]), in test [2] (setting [6]) and in test [2] (setting [8]) was 80 to 100% in each case. The pest or weed control at 121.5 g/ha in test [1] (setting [4]), in test [1] (setting [5]), in test [2] (setting [7]) and in test [2] (setting [9]) was 80 to 100% in each case.
For the molecule `COc1ccnc(C(=O)N[C@H]2CCC[C@H](CCC(C)C)[C@@H](OC)[C@H](C)OC2=O)c1O` [Compound F7], the pest or weed control at 100 ppm in test [1] (setting [3]) is 80 to 100%; in test [1] (setting [10]), 80 to 100%; in test [2] (setting [6]), 80 to 100%; in test [2] (setting [8]) it was 0 to 80%.
Turning to `COc1ccnc(C(=O)N[C@H]2CCC[C@H](CC3CCCCC3)[C@@H](OCC(C)C)[C@H](C)OC2=O)c1O` [Compound F25], the pest or weed control at 100 ppm is 80 to 100% in test [1] (setting [3]), 0 to 80% in test [1] (setting [10]) and 80 to 100% in test [2] (setting [6]).
`COc1ccnc(C(=O)N[C@H]2CCC[C@H](CCOc3ccccc3)[C@@H](OCC3CC3)[C@H](C)OC2=O)c1OCOC(C)=O` [Compound F142]: the pest or weed control at 100 ppm in test [1] (setting [3]), in test [1] (setting [10]), in test [2] (setting [6]) and in test [2] (setting [8]) was 80 to 100% in each case. Moreover, the pest or weed control at 121.5 g/ha in test [1] (setting [4]) is 80 to 100%; in test [1] (setting [5]), 0 to 80%; in test [2] (setting [7]), 80 to 100%; in test [2] (setting [9]) it was 80 to 100%.
With `COc1ccnc(C(=O)N[C@H]2CCC[C@H](Cc3ccc(F)cc3F)[C@@H](OCCCc3ccccc3)[C@H](C)OC2=O)c1O` [Compound F56], the pest or weed control at 100 ppm in test [1] (setting [3]) fell in the range of 80 to 100%; in test [1] (setting [10]), 0 to 80%; in test [2] (setting [6]), 80 to 100%; in test [2] (setting [8]), 0 to 80%.
For `CC[C@H]1CCC[C@H](NC(=O)c2nccc(OC)c2OCOC(C)=O)C(=O)O[C@@H](C)[C@@H]1Oc1ccccc1` [Compound F136], the pest or weed control at 100 ppm in test [1] (setting [3]), in test [1] (setting [10]), in test [2] (setting [6]) and in test [2] (setting [8]) was 80 to 100% throughout. In addition, the pest or weed control at 121.5 g/ha in test [1] (setting [4]), in test [1] (setting [5]), in test [2] (setting [7]) and in test [2] (setting [9]) was 80 to 100% in each case.
For the molecule `COc1ccnc(C(=O)N[C@H]2CCC[C@@H]3CCO[C@H]3[C@H](C)OC2=O)c1OC(C)=O` [Compound F85], the pest or weed control at 121.5 g/ha in test [1] (setting [4]) was in the range of 0 to 80%; in test [2] (setting [7]), 80 to 100%; in test [2] (setting [9]), 80 to 100%.
`COc1ccnc(C(=O)N[C@H]2CCC[C@@H]3CCO[C@H]3[C@H](C)OC2=O)c1O` [Compound F58]: the pest or weed control at 100 ppm in test [2] (setting [6]) and in test [2] (setting [8]) was 80 to 100% each time.
Turning to `CCOCC(=O)OCOc1c(OC)ccnc1C(=O)N[C@H]1CCC[C@@H]2CCO[C@H]2[C@H](C)OC1=O` [Compound F192], the pest or weed control at 100 ppm in test [2] (setting [11]) was in the range of 80 to 100%; in test [2] (72 h, Wheat Brown Rust, 3 Day Curative, rate 100 ppm (high volume application), read-out: Disease control PUCCRT 3 DC) it was 80 to 100%. Further, the pest or weed control at 121.5 g/ha in test [2] (setting [12]) and in test [2] (setting [13]) was 80 to 100% throughout.
